This is an account of results in ChEMBL document CHEMBL3608244, “Left-Hand Side Exploration of Novel Bacterial Topoisomerase Inhibitors to Improve Selectivity against hERG Binding” (ACS Med Chem Lett, 2015).

Values after ≈ are worked out from the molar mass of the structure shown.

Holding throughout (format): functional
Test [1] concerns Mycobacterium tuberculosis. Put plainly: Antimycobacterial activity against 6-((1-(2-(7-chloro-2-oxo-1,8-naphthyridin-1(2H)-yl)ethyl)piperidin-4-ylamino)methyl)-2H-pyrido[3,2-b][1,4]oxazin-3(4H)-one resistant Mycobacterium tuberculosis H37Rv harboring DNA gyraseA A74V mutant incubated for 7 days by microdilution method. On the technique in general: Dilution methods test growth across graded concentrations, often in twofold steps.

Test [2] concerns Mycobacterium tuberculosis. Description: Antimycobacterial activity against 1-(2-(4-((5-chloro-6-methylpyridin-3-yl)methylamino)piperidin-1-yl)ethyl)-7-fluoro-1,5-naphthyridin-2(1H)-one resistant Mycobacterium tuberculosis H37Rv harboring DNA gyraseA D89N mutant incubated for 7 days by microdilution method.
In test [3] the test system is Mycobacterium tuberculosis. Put plainly: Antimycobacterial activity against moxifloxacin resistant Mycobacterium tuberculosis H37Rv harboring DNA gyraseA G88N mutant incubated for 7 days by microdilution method.
Test [4] relates to Mycobacterium tuberculosis. Description: Ratio of MIC for 6-((1-(2-(7-chloro-2-oxo-1,8-naphthyridin-1(2H)-yl)ethyl)piperidin-4-ylamino)methyl)-2H-pyrido[3,2-b][1,4]oxazin-3(4H)-one resistant Mycobacterium tuberculosis H37Rv harboring DNA gyraseA A74V mutant to MIC for Mycobacterium tuberculosis H37Rv ATCC 27294.
In test [5] the test system is Mycobacterium tuberculosis. Description: Ratio of MIC for 1-(2-(4-((5-chloro-6-methylpyridin-3-yl)methylamino)piperidin-1-yl)ethyl)-7-fluoro-1,5-naphthyridin-2(1H)-one resistant Mycobacterium tuberculosis H37Rv harboring DNA gyraseA D89N mutant to MIC for Mycobacterium tuberculosis H37Rv ATCC 27294.

`NNC(=O)c1ccncc1` [ISONIAZID]: the MIC was 0.06 µM (≈ 0.00823 µg/mL) in test [1], 0.03 µM (≈ 0.00411 µg/mL) in test [2] and 0.06 µM (≈ 0.00823 µg/mL) in test [3].
Regarding `O=C(O)c1cn(C2CC2)c2cc(N3CCNCC3)c(F)cc2c1=O` [CIPROFLOXACIN], the MIC was determined as 0.5 µM (≈ 0.166 µg/mL) in test [1], 16 µM (≈ 5.3 µg/mL) in test [2] and 8 µM (≈ 2.65 µg/mL) in test [3].
With `O=C1COc2ccc(CNC3CCN(CCn4c(=O)ccc5ccc(Cl)nc54)CC3)nc2N1`, the MIC was 4 µM (≈ 1.88 µg/mL) in test [1], more than 100 µM in test [2] and less than 0.19 µM in test [3].
With `CO[C@H]1/C=C/O[C@@]2(C)Oc3c(C)c(O)c4c(O)c(c(/C=N/N5CCN(C)CC5)c(O)c4c3C2=O)NC(=O)/C(C)=C\C=C\[C@H](C)[C@H](O)[C@@H](C)[C@@H](O)[C@@H](C)[C@H](OC(C)=O)[C@@H]1C` [RIFAMPIN], the MIC in test [1] and in test [3] was 0.008 µM (≈ 0.00658 µg/mL) each time.
In the case of `O=C1COc2ccc(CNC3CCN(CCn4c(=O)ccc5ccc(Oc6cccnc6)nc54)CC3)nc2N1`, the MIC in test [1] is 8 µM (≈ 4.22 µg/mL); in test [2] it was more than 100 µM; in test [3], 0.78 µM (≈ 0.412 µg/mL). Also, the Ratio in test [4] and in test [5] was more than 25 in each case.
As to `COc1c(N2C[C@@H]3CCCN[C@@H]3C2)c(F)cc2c(=O)c(C(=O)O)cn(C3CC3)c12` [MOXIFLOXACIN], the MIC was determined as 0.25 µM (≈ 0.1 µg/mL) in test [1], 2 µM (≈ 0.803 µg/mL) in test [2] and 4 µM (≈ 1.61 µg/mL) in test [3].
For the compound `Cc1ncc(CNC2CCN(CCn3c(=O)ccc4ncc(F)cc43)CC2)cc1Cl`, the figures for the MIC in test [1], in test [2] and in test [3] were 2 µM (≈ 0.86 µg/mL), more than 100 µM and less than 0.19 µM, respectively.
Turning to `O=C1COc2ccc(CN[C@@H]3CCN(CCn4c(=O)ccc5ncc(Oc6cccnc6)cc54)C[C@@H]3F)nc2N1`, the minimal inhibitory concentration (MIC) in test [1] is 50 µM (≈ 27.3 µg/mL); in test [2] it was more than 100 µM; in test [3], 0.39 µM (≈ 0.213 µg/mL).
On to `O=C1COc2ccc(CNC3CCN(CCn4c(=O)ccc5ccc(Oc6cncnc6)nc54)CC3)nc2N1`, for which the values for the MIC in test [1], in test [2] and in test [3] were 50 µM (≈ 26.4 µg/mL), more than 100 µM and 0.06 µM (≈ 0.0317 µg/mL), respectively. The Ratio in test [4] and in test [5] was more than 25 each time.

The MIC is the lowest concentration found to suppress growth. A lower MIC goes with inhibition by little substance.
